According to patent publication US20110044938A1 (NYCOMED GMBH, priority 2006, published 2011):

Legend:
[1] = tested on: RKO (RKOp27) human colon adenocarcinoma cells; assay: Alamar Blue cell viability assay, anti-proliferative/cytotoxic activity on proliferating RKO subclones; assay type: cell-based; settings: RKOp27, 72 h, RKO p27 uninduced (proliferating) cells, value = class bound given in Table A, read-out: −logIC50 RKO p27 uninduced (proliferating) (converted)
Procedure, shortened: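 Alamar Blue fluorescence (ex 544, em 590 nm) after 72 h compound exposure at 37 °C, 5% CO2, normalised to untreated controls set at 100%. Cells were seeded at 5000 per well and dosed 24 h later with serial semi-logarithmic dilutions in 10% FCS DMEM, four replicates each. −log IC50 [mol/l] was derived from concentration-effect curves.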

[2] = tested on: subclones of RKO colon adenocarcinoma cells (RKOp27 or RKOp21) arrested by Ponasterone A; assay: Alamar Blue cell viability assay, cell cycle specific mode of action: cells arrested by ectopic p27Kip1 induced by Ponasterone A versus proliferating cells; assay type: cell-based; settings: Homo sapiens, RKO p27 induced (arrested) cells, 10 μM Ponasterone A, 72 hours, value = class bound given in Table A, read-out: −logIC50 RKO p27 induced (arrested) (converted)
Procedure, shortened: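 Viability of proliferating versus Ponasterone A (10 μM)-arrested RKOp27/RKOp21 cells after 72 h compound exposure at 37° C, in quadruplicate. Read-out is Alamar Blue fluorescence (544/590 nm) normalised to untreated cells = 100%; values as −log IC50.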

Row | IC50 [2] | SMILES | IC50 [1]
1 | ≥ 50100 nM | COc1cccc(C(C)CC(=O)Nc2sc3c(c2C#N)CCC(COC(=O)NCc2cccn2C)C3)c1 (stereo not drawn) [Example 338, (1-Methyl-1H-pyrrol-2-ylmethyl)-carbamic acid 3-cyano-2-[3-(3-methoxy-phenyl)-butanoylamino]-4,5,6,7-tetrahydro-benzo[b]thiophen-6-ylmethyl ester] | 501 to 2000 nM
2 | ≥ 50100 nM | CCn1nccc1CNC(=O)OCC1CCc2c(sc(NC(=O)CC(C)c3cccc(OC)c3)c2C#N)C1 (stereo not drawn) [Example 341, (2-Ethyl-2H-pyrazol-3-ylmethyl)-carbamic acid 3-cyano-2-[3-(3-methoxy-phenyl)-butanoylamino]-4,5,6,7-tetrahydro-benzo[b] thiophen-6-ylmethyl ester] | 501 to 2000 nM
3 | ≥ 50100 nM | CC(CC(=O)Nc1sc2c(c1C#N)CCC(COC(=O)NCc1ccccc1)C2)c1ccccn1 (stereo not drawn) [Example 343, Benzyl-carbamic acid 3-cyano-2-(3-pyridin-2-yl-butanoyl-amino)-4,5,6,7-tetrahydro-benzo[b] thiophen-6-ylmethyl ester] | ≤ 501 nM
4 | ≥ 100000 nM | Cc1nocc1CNC(=O)OCC1CCc2c(sc(NC(=O)CC(C)c3ccccc3)c2C#N)C1 (stereo not drawn) [Example 352, (3-Methyl-isoxazol-4-ylmethyl)-carbamic acid 3-cyano-2-(3-phenyl-butanoylamino)-4,5,6,7-tetrahydro-benzo[b]thiophen-6-ylmethyl ester] | ≤ 501 nM
5 | ≥ 100000 nM | CC(CC(=O)Nc1sc2c(c1C#N)CCC(COC(=O)NCc1ccno1)C2)c1ccccc1 (stereo not drawn) [Example 353, Isoxazol-5-ylmethyl-carbamic acid 3-cyano-2-(3-phenyl-butanoylamino)-4,5,6,7-tetrahydro-benzo[b] thiophen-6-ylmethyl ester] | ≤ 501 nM
6 | ≥ 100000 nM | Cc1oncc1CNC(=O)OC1CCc2c(sc(NC(=O)CC(C)c3ccccc3)c2C#N)C1 (stereo not drawn) [Example 358, (5-Methyl-isoxazol-4-ylmethyl)-carbamic acid 3-cyano-2-(3-phenyl-butanoylamino)-4,5,6,7-tetrahydro-benzo[b]thiophen-6-yl ester] | ≤ 501 nM
7 | ≥ 100000 nM | Cc1nocc1CNC(=O)OC1CCc2c(sc(NC(=O)CC(C)c3ccccc3)c2C#N)C1 (stereo not drawn) [Example 359, (3-Methyl-isoxazol-4-ylmethyl)-carbamic acid 3-cyano-2-(3-phenyl-butanoylamino)-4,5,6,7-tetrahydro-benzo[b] thiophen-6-yl ester] | ≤ 501 nM
8 | ≥ 100000 nM | COc1cccc(C(C)CC(=O)Nc2sc3c(c2C#N)CCC(COC(=O)NCc2cc(C)no2)C3)c1 (stereo not drawn) [Example 364, (3-Methyl-isoxazol-5-ylmethyl)-carbamic acid 3-cyano-2-[3-(3-methoxy-phenyl)-butanoyl-amino]-4,5,6,7-tetrahydro-benzo[b]thiophen-6-ylmethyl ester] | ≤ 501 nM
9 | ≥ 50100 nM | Cc1cc(CNC(=O)OCC2CCc3c(sc(NC(=O)CC(C)c4cccnc4)c3C#N)C2)on1 (stereo not drawn) [Example 370, (3-Methyl-isoxazol-5-ylmethyl)-carbamic acid 3-cyano-2-(3-pyridin-3-yl-butanoylamino)-4,5,6,7-tetrahydro-benzo[b] thiophen-6-ylmethyl ester] | 501 to 2000 nM

Continued, compound first:

Row | SMILES | IC50 [2] | IC50 [1]
10 | COc1cccc(C(C)CC(=O)Nc2sc3c(c2C#N)CCC(COC(=O)NC(C)c2ccnn2C)C3)c1 (stereo not drawn) [Example 337, [1-(2-Methyl-2H-pyrazol-3-yl)-ethyl]-carbamic acid 3-cyano-2-[3-(3-methoxy-phenyl)-butanoylamino]-4,5,6,7-tetrahydro-benzo[b] thiophen-6-ylmethyl ester] | ≥ 50100 nM | 501 to 2000 nM
11 | COc1cccc(C(C)CC(=O)Nc2sc3c(c2C#N)CCC(COC(=O)NCc2cn(C)nc2C)C3)c1 (stereo not drawn) [Example 339, (1,3-Dimethyl-1H-pyrazol-4-ylmethyl)-carbamic acid 3-cyano-2-[3-(3-methoxy-phenyl)-butanoylamino]-4,5,6,7-tetrahydro-benzo[b] thiophen-6-ylmethyl ester] | ≥ 50100 nM | 501 to 2000 nM
12 | COc1cccc(C(C)CC(=O)Nc2sc3c(c2C#N)CCC(COC(=O)NCc2cc(C)nn2C)C3)c1 (stereo not drawn) [Example 340, (2,5-Dimethyl-2H-pyrazol-3-ylmethyl)-carbamic acid 3-cyano-2-[3-(3-methoxy-phenyl)-butanoyl-amino]-4,5,6,7-tetrahydro-benzo[b]thiophen-6-ylmethyl ester] | ≥ 10000 nM | 501 to 2000 nM
13 | Cc1nc(CNC(=O)OC2CCc3c(sc(NC(=O)CC(C)c4ccccc4)c3C#N)C2)cs1 (stereo not drawn) [Example 351, (2-Methyl-thiazol-4-ylmethyl)-carbamic acid 3-cyano-2-(3-phenyl-butanoylamino)-4,5,6,7-tetrahydro-benzo[b] thiophen-6-yl ester] | ≥ 100000 nM | ≤ 501 nM
14 | Cc1oncc1CNC(=O)OC1CCc2c(sc(NC(=O)CC(C)c3cccnc3)c2C#N)C1 (stereo not drawn) [Example 354, (5-Methyl-isoxazol-4-ylmethyl)-carbamic acid 3-cyano-2-(3-pyridin-3-yl-butanoylamino)-4,5,6,7-tetrahydro-benzo[b] thiophen-6-yl ester] | ≥ 100000 nM | 501 to 2000 nM
15 | Cc1nocc1CNC(=O)OC1CCc2c(sc(NC(=O)CC(C)c3cccnc3)c2C#N)C1 (stereo not drawn) [Example 355, (3-Methyl-isoxazol-4-ylmethyl)-carbamic acid 3-cyano-2-(3-pyridin-3-yl-butanoylamino)-4,5,6,7-tetrahydro-benzo[b] thiophen-6-yl ester] | ≥ 100000 nM | 501 to 2000 nM
16 | CC(CC(=O)Nc1sc2c(c1C#N)CCC(OC(=O)OCc1cncs1)C2)c1cccnc1 (stereo not drawn) [Example 356, Carbonic acid 3-cyano-2-(3-pyridin-3-yl-butanoylamino)-4,5,6,7-tetrahydro-benzo[b] thiophen-6-yl ester thiazol-5-ylmethyl ester] | ≥ 100000 nM | 501 to 2000 nM
17 | CC(CC(=O)Nc1sc2c(c1C#N)CCC(COC(=O)N1CCCC1)C2)c1cccnc1 (stereo not drawn) [Example 357, Pyrrolidine-1-carboxylic acid 3-cyano-2-(3-pyridin-3-yl-butanoylamino)-4,5,6,7-tetrahydro-benzo[b]thiophen-6-ylmethyl ester] | ≥ 100000 nM | ≤ 501 nM
18 | CC(CC(=O)Nc1sc2c(c1C#N)CCC(OC(=O)N1CCCC1)C2)c1ccccc1 (stereo not drawn) [Example 360, Pyrrolidine-1-carboxylic acid 3-cyano-2-(3-phenyl-butanoylamino)-4,5,6,7-tetrahydro-benzo[b] thiophen-6-yl ester] | ≥ 100000 nM | ≤ 501 nM
19 | COc1cccc(C(C)CC(=O)Nc2sc3c(c2C#N)CCC(OC(=O)NCc2conc2C)C3)c1 (stereo not drawn) [Example 361, (3-Methyl-isoxazol-4-ylmethyl)-carbamic acid 3-cyano-2-[3-(3-methoxy-phenyl)-butanoyl-amino]-4,5,6,7-tetrahydro-benzo[b] thiophen-6-yl ester] | ≥ 100000 nM | ≤ 501 nM
20 | COc1cccc(C(C)CC(=O)Nc2sc3c(c2C#N)CCC(OC(=O)NCc2cc(C)no2)C3)c1 (stereo not drawn) [Example 362, (3-Methyl-isoxazol-5-ylmethyl)-carbamic acid 3-cyano-2-[3-(3-methoxy-phenyl)-butanoyl-amino]-4,5,6,7-tetrahydro-benzo[b]thiophen-6-yl ester] | ≥ 100000 nM | 501 to 2000 nM
21 | COc1cccc(C(C)CC(=O)Nc2sc3c(c2C#N)CCC(COC(=O)NCc2csc(C)n2)C3)c1 (stereo not drawn) [Example 363, (2-Methyl-thiazol-4-ylmethyl)-carbamic acid 3-cyano-2-[3-(3-methoxy-phenyl)-butanoyl-amino]-4,5,6,7-tetrahydro-benzo[b]thiophen-6-ylmethyl ester] | ≥ 100000 nM | 501 to 2000 nM
22 | COc1cccc(C(C)CC(=O)Nc2sc3c(c2C#N)CCC(COC(=O)NCc2conc2C)C3)c1 (stereo not drawn) [Example 365] | ≥ 100000 nM | 501 to 2000 nM
23 | CC(CC(=O)Nc1sc2c(c1C#N)CCC(OC(=O)N1CCOCC1)C2)c1ccccc1 (stereo not drawn) [Example 366, Morpholine-4-carboxylic acid 3-cyano-2-(3-phenyl-butanoyl-amino)-4,5,6,7-tetrahydro-benzo[b] thiophen-6-yl ester] | ≥ 50100 nM | ≤ 501 nM
24 | CC(CC(=O)Nc1sc2c(c1C#N)CCC(COC(=O)N1CCOCC1)C2)c1cccnc1 (stereo not drawn) [Example 367, Morpholine-4-carboxylic acid 3-cyano-2-(3-pyridin-3-yl-butanoylamino)-4,5,6,7-tetrahydro-benzo[b]thiophen-6-ylmethyl ester] | ≥ 50100 nM | 501 to 2000 nM
25 | CC(CC(=O)Nc1sc2c(c1C#N)CCC(OC(=O)OCc1nccs1)C2)c1ccccc1 (stereo not drawn) [Example 368, Carbonic acid 3-cyano-2-(3-phenyl-butanoylamino)-4,5,6,7-tetrahydro-benzo[b]thiophen-6-yl ester thiazol-2-ylmethyl ester] | ≥ 50100 nM | 501 to 2000 nM
26 | CC(CC(=O)Nc1sc2c(c1C#N)CCC(OC(=O)N1CCCC1)C2)c1cccnc1 (stereo not drawn) [Example 369, Pyrrolidine-1-carboxylic acid 3-cyano-2-(3-pyridin-3-yl-butanoylamino)-4,5,6,7-tetrahydro-benzo[b]thiophen-6-yl ester] | ≥ 50100 nM | 501 to 2000 nM
27 | CC(CC(=O)Nc1sc2c(c1C#N)CCC(COC(=O)N1CCCC1)C2)c1ccccn1 (stereo not drawn) [Example 371, Pyrrolidine-1-carboxylic acid 3-cyano-2-(3-pyridin-2-yl-butanoylamino)-4,5,6,7-tetrahydro-benzo[b]thiophen-6-ylmethyl ester] | ≥ 50100 nM | 501 to 2000 nM
